Key:
[1] = test system: Beet Armyworm (BAW) (Spodoptera exigua); assay: Bioassay on beet armyworm (BAW), 128-well diet tray assay, percent mortality; type: in vivo; details: Spodoptera exigua, 50 μg/cm^2
Experimental: (§1) Certain molecules disclosed in this document were tested against BAW and CEW using procedures described in the following examples. In the reporting of the results, the “BAW & CEW Rating Table” was used (See Table Section).
Bioassays on BAW (Spodoptera exigua)
Bioassays on BAW were conducted using a 128-well diet tray assay. One to five second instar BAW larvae were placed in each well (3 mL) of the diet tray that had been previously filled with 1 mL of artificial diet to which 50 μg/cm^2 of the test compound (dissolved in 50 μL of 90:10 acetone-water mixture) had been applied (to each of eight wells) and then allowed to dry. Trays were covered with a clear self-adhesive cover and held at 25° C., 14:10 light-dark for five to seven days. Percent mortality was recorded for the larvae in each well; activity in the eight wells was then averaged. The results are indicated in the table entitled “Table 5: Biological Results” (See Table Section).

[2] = test system: Corn Earworm (CEW) (Helicoverpa zea); assay: Bioassay on corn earworm (CEW), 128-well diet tray assay, percent mortality; type: in vivo; details: Helicoverpa zea, 50 μg/cm^2
Experimental: as §1
Bioassays on CEW (Helicoverpa zea)
Bioassays on CEW were conducted using a 128-well diet tray assay. One to five second instar CEW larvae were placed in each well (3 mL) of the diet tray that had been previously filled with 1 mL of artificial diet to which 50 μg/cm^2 of the test compound (dissolved in 50 μL of 90:10 acetone-water mixture) had been applied (to each of eight wells) and then allowed to dry. Trays were covered with a clear self-adhesive cover and held at 25° C., 14:10 light-dark for five to seven days. Percent mortality was recorded for the larvae in each well; activity in the eight wells was then averaged. The results are indicated in the table entitled “Table 5: Biological Results” (See Table Section).

[3] = test system: Green Peach Aphid (GPA) (Myzus persicae); assay: Bioassay on green peach aphid (GPA), foliar spray on cabbage seedlings, corrected % control; type: in vivo; details: 72 h, read-out: % Mortality GPA 200 ppm
Experimental: Certain molecules disclosed in this document were tested against GPA using procedures described in the following example. In the reporting of the results, the “GPA Rating Table” was used (See Table Section).
Cabbage seedlings grown in 3-inch pots, with 2-3 small (3-5 cm) true leaves, were used as test substrate. The seedlings were infested with 20-50 GPA (wingless adult and nymph stages) one day prior to chemical application. Four pots with individual seedlings were used for each treatment. Test compounds (2 mg) were dissolved in 2 mL of acetone/methanol (1:1) solvent, forming stock solutions of 1000 ppm test compound. […] A hand-held aspirator-type sprayer was used for spraying a solution to both sides of […] leaves until runoff. Reference plants (solvent check) were sprayed with the diluent only containing 20% by volume of acetone/methanol (1:1) solvent. Treated plants were held in a holding room for three days at approximately 25° C. and ambient relative humidity (RH) prior to grading. Evaluation was conducted by counting the number of live aphids per plant under a microscope.
Corrected % Control=100*(X−Y)/X • where • X=No. of live aphids on solvent check plants and • Y=No. of live aphids on treated plants
The results are indicated in the table entitled “Table 5: Biological Results” (See Table Section).

Row | melting point [°C] | Compound | pest or weed control at 50 µg/cm2, 50 µg/cm2 [1] [%] | pest or weed control at 50 µg/cm2, 50 µg/cm2 [2] [%] | pest or weed control at 200 ppm [3] [%]
1 |  | Cc1cc(C)c(N2C(=O)CS/C2=N\N=C\c2ccc(-c3ncn(-c4ccc(OC(F)(F)F)cc4)n3)cc2)c(C)c1 [Compound 72C] | 50 to 100 | 50 to 100 | 0 to 80
2 |  | CCc1cccc(C)c1N1CCCS/C1=N\N=C\c1ccc(-c2ncn(-c3ccc(OC(F)(F)F)cc3)n2)cc1 [Compound 180C] | 50 to 100 | 50 to 100 | 0 to 80
3 |  | CC(C)c1ccccc1N1/C(=N/N=C/c2ccc(-c3ncn(-c4ccc(OC(F)(F)F)cc4)n3)cc2)SCC1(C)O (stereo not shown) [Compound 242C] | 50 to 100 | 50 to 100 | 0 to 80
4 |  | CCC(C)c1ccccc1N1/C(=N/N=C/c2ccc(-c3ncn(-c4ccc(OC(F)(F)F)cc4)n3)cc2)SCC1(C)O (stereo not shown) [Compound 243C] | 50 to 100 | 50 to 100 | 0 to 80
5 |  | Cc1cccc(Cl)c1N1/C(=N/N=C/c2ccc(-c3ncn(-c4ccc(OC(F)(F)F)cc4)n3)cc2)SCC1(C)O (stereo not shown) [Compound 244C] | 50 to 100 | 50 to 100 | 
6 |  | COc1ccc(N2/C(=N/N=C/c3ccc(-c4ncn(-c5ccc(OC(F)(F)F)cc5)n4)cc3)SCC2(C)O)c(C)c1 (stereo not shown) [Compound 245C] | 50 to 100 | 50 to 100 | 0 to 80
7 |  | CCC(C)c1ccccc1N1/C(=N/N=C/c2ccc(-c3ncn(-c4ccc(OC(F)(F)F)cc4)n3)cc2)SCC1(O)C(F)(F)F (stereo not shown) [Compound 247C] | 50 to 100 | 50 to 100 | 
8 |  | Cc1ccccc1N1/C(=N/N=C/c2ccc(-c3ncn(-c4ccc(OC(F)(F)F)cc4)n3)cc2)SCC1(C)O (stereo not shown) [Compound 248C] | 50 to 100 | 50 to 100 | 0 to 80
9 |  | CC1(O)CS/C(=N\N=C\c2ccc(-c3ncn(-c4ccc(OC(F)(F)F)cc4)n3)cc2)N1c1ccccc1C1CCCC1 (stereo not shown) [Compound 249C] | 50 to 100 | 50 to 100 | 
10 |  | CC(C)c1cccc(F)c1N1/C(=N/N=C/c2ccc(-c3ncn(-c4ccc(OC(F)(F)F)cc4)n3)cc2)SCC1(C)O (stereo not shown) [Compound 250C] | 50 to 100 | 50 to 100 | 0 to 80
11 |  | Cc1ccc(N2/C(=N/N=C/c3ccc(-c4ncn(-c5ccc(OC(F)(F)F)cc5)n4)cc3)SCC2(C)O)c(C(C)C)c1 (stereo not shown) [Compound 251C] | 50 to 100 | 50 to 100 | 0 to 80
12 |  | Cc1cccc(N2/C(=N/N=C/c3ccc(-c4ncn(-c5ccc(OC(F)(F)F)cc5)n4)cc3)SCC2(C)O)c1C(C)C (stereo not shown) [Compound 252C] | 50 to 100 | 50 to 100 | 
13 |  | Cc1ccc(C(C)C)c(N2/C(=N/N=C/c3ccc(-c4ncn(-c5ccc(OC(F)(F)F)cc5)n4)cc3)SCC2(C)O)c1 (stereo not shown) [Compound 253C] | 50 to 100 | 50 to 100 | 
14 |  | CCc1ccccc1N1/C(=N/N=C/c2ccc(-c3ncn(-c4ccc(OC(F)(F)F)cc4)n3)cc2)SCC1(C)O (stereo not shown) [Compound 254C] | 50 to 100 | 50 to 100 | 0 to 80
15 |  | COc1cc(C)c(N2/C(=N/N=C/c3ccc(-c4ncn(-c5ccc(OC(F)(F)F)cc5)n4)cc3)SCC2(C)O)c(C)c1 (stereo not shown) [Compound 255C] | 50 to 100 | 50 to 100 | 
16 |  | CCCc1ccccc1N1/C(=N/N=C/c2ccc(-c3ncn(-c4ccc(OC(F)(F)F)cc4)n3)cc2)SCC1(C)O (stereo not shown) [Compound 256C] | 50 to 100 | 50 to 100 | 0 to 80
17 |  | CC(C)c1ccccc1N1/C(=N/N=C/c2ccc(-c3ncn(-c4ccc(OC(F)(F)F)cc4)n3)cc2)SC(C)C1(C)O (stereo not shown) [Compound 257C] | 50 to 100 | 50 to 100 | 
18 |  | CC(C)c1cc(F)ccc1N1/C(=N/N=C/c2ccc(-c3ncn(-c4ccc(OC(F)(F)F)cc4)n3)cc2)SCC1(C)O (stereo not shown) [Compound 258C] | 50 to 100 | 50 to 100 | 
19 |  | CC(C)c1cc(F)c(F)cc1N1/C(=N/N=C/c2ccc(-c3ncn(-c4ccc(OC(F)(F)F)cc4)n3)cc2)SCC1(C)O (stereo not shown) [Compound 259C] | 50 to 100 | 50 to 100 | 
20 |  | CC(C)c1ccccc1N1/C(=N/N=C/c2ccc(-c3ncn(-c4ccc(C(F)(C(F)(F)F)C(F)(F)F)cc4)n3)cc2)SCC1(C)O (stereo not shown) [Compound 260C] | 50 to 100 | 50 to 100 | 
21 |  | CC(C)c1ccccc1N1/C(=N/N=C/c2ccc(-c3ncn(-c4ccc(C(F)(F)F)cc4)n3)cc2)SCC1(C)O (stereo not shown) [Compound 261C] | 50 to 100 | 50 to 100 | 
22 |  | CC(C)c1ccccc1N1/C(=N/N=C/c2ccc(-c3ncn(-c4ccc(OC(F)(F)C(F)(F)F)cc4)n3)cc2)SCC1(C)O (stereo not shown) [Compound 262C] | 50 to 100 | 50 to 100 | 0 to 80
23 |  | CC(C)c1ccccc1N1/C(=N/N=C/c2ccc(-c3ncn(-c4ccc(OC(F)(F)F)cc4)n3)cc2)SCC1(O)c1ccccc1C(F)(F)F (stereo not shown) [Compound 263C] | 50 to 100 | 50 to 100 | 0 to 80
24 | 213 to 216 | FC(F)(F)Oc1ccc(-n2cnc(-c3ccc(/C=N/NC(=S)Nc4ccccc4C4CCCC4)cc3)n2)cc1 [Compound I-35] |  |  | 
25 | 219 to 222 | Cc1cccc(NC(=S)N/N=C/c2ccc(-c3ncn(-c4ccc(OC(F)(F)F)cc4)n3)cc2)c1C(C)C [Compound I-43] |  |  | 
26 | 167 to 169 | Cc1ccc(C(C)C)c(NC(=S)NN)c1 [Compound I-46] |  |  | 
27 | 163 to 167 | CC(C)c1cc(F)ccc1NC(=S)NN [Compound I-50] |  |  | 
28 | 169 to 170 | CC(C)c1cc(F)c(F)cc1NC(=S)NN [Compound I-54] |  |  | 
29 | 217 to 221 | CC(C)c1cc(F)c(F)cc1NC(=S)N/N=C/c1ccc(-c2ncn(-c3ccc(OC(F)(F)F)cc3)n2)cc1 [Compound I-55] |  |  | 

Source: patent US20160135464A1, “PESTICIDAL COMPOSITIONS AND PROCESSES RELATED THERETO” (Dow AgroSciences LLC, priority 2014, published 2016)
